Laboratory results taken from ChEMBL document CHEMBL1201862, “PubChem BioAssay data set” (2004).
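1) Cells in 96-well plates. 2) Compound, 48 h, 5 concentrations. 3) Linear interpolation between surrounding doses. 4) Unreached endpoint = highest concentration. At the GI50, growth is halved.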 Calls of active or inactive are those of the source. Rule as the data show it: active = GI50 up to about 1.1 µM and inactive = higher.

Tests used:
Experiment in all cases: inhibition of tumour cell growth, NCI panel, 48 h
[1] = system: NCI-H23
[2] = system: SR
[3] = system: RPMI-8226
[4] = system: TK-10
[5] = system: U-251
[6] = system: KM12
[7] = system: EKVX
[8] = system: LOX IMVI
[9] = system: SK-MEL-2
[10] = system: BT-549
[11] = system: 786-0
[12] = system: Malme-3M
[13] = system: UO-31
[14] = system: SW-620
[15] = system: HCT-116
[16] = system: MOLT-4
[17] = system: MDA-MB-231
[18] = system: M14
[19] = system: OVCAR-3
[20] = system: COLO 205
[21] = system: UACC-62
[22] = system: OVCAR-8
[23] = system: OVCAR-4
[24] = system: HCT-15
[25] = system: OVCAR-5
[26] = system: NCI-H522
[27] = system: A549
[28] = system: SF-295
[29] = system: MCF7
[30] = system: SNB-19
[31] = system: CAKI-1
[32] = system: MDA-MB-435
[33] = system: SF-539
[34] = system: DU-145
[35] = system: IGROV-1
[36] = system: HOP-62
[37] = system: SK-MEL-5
[38] = system: HOP-92
[39] = system: Hs-578T
[40] = system: UACC-257
[41] = system: CCRF-CEM
[42] = system: SK-MEL-28
[43] = system: SNB-75
[44] = system: SF-268
[45] = system: NCI-H460
[46] = system: T47D
[47] = system: MDA-N
[48] = system: ACHN
[49] = system: NCI/ADR-RES
[50] = system: K562
[51] = system: HL-60
[52] = system: HT-29
[53] = system: A498
[54] = system: NCI-H226
[55] = system: RXF 393
[56] = system: PC-3
[57] = system: SN12C
[58] = system: SK-OV-3
[59] = system: HCC 2998

SMILES: NCCOc1ccccn1
- GI50 [1]: > 100 µM (inactive)
- GI50 [2]: > 100 µM (inactive)
- GI50 [3]: > 100 µM (inactive)
- GI50 [4]: > 100 µM (inactive)
- GI50 [5]: > 100 µM (inactive)
- GI50 [6]: > 100 µM (inactive)
- GI50 [7]: > 100 µM (inactive)
- GI50 [8]: > 100 µM (inactive)
- GI50 [9]: > 100 µM (inactive)
- GI50 [10]: > 100 µM (inactive)
- GI50 [11]: > 100 µM (inactive)
- GI50 [12]: > 100 µM (inactive)
- GI50 [13]: > 100 µM (inactive)
- GI50 [14]: > 100 µM (inactive)
- GI50 [15]: > 100 µM (inactive)
- GI50 [16]: > 100 µM (inactive)
- GI50 [17]: > 100 µM (inactive)
- GI50 [18]: > 100 µM (inactive)
- GI50 [19]: > 100 µM (inactive)
- GI50 [20]: > 100 µM (inactive)
- GI50 [21]: > 100 µM (inactive)
- GI50 [22]: > 100 µM (inactive)
- GI50 [23]: > 100 µM (inactive)
- GI50 [24]: > 100 µM
- GI50 [25]: > 100 µM (inactive)
- GI50 [26]: > 100 µM (inactive)
- GI50 [27]: > 100 µM (inactive)
- GI50 [28]: > 100 µM (inactive)
- GI50 [29]: > 100 µM (inactive)
- GI50 [30]: > 100 µM (inactive)
- GI50 [31]: > 100 µM (inactive)
- GI50 [32]: > 100 µM (inactive)
- GI50 [33]: > 100 µM (inactive)
- GI50 [34]: > 100 µM (inactive)
- GI50 [35]: > 100 µM (inactive)
- GI50 [36]: > 100 µM (inactive)
- GI50 [37]: > 100 µM (inactive)
- GI50 [38]: > 100 µM (inactive)
- GI50 [39]: > 100 µM (inactive)
- GI50 [40]: > 100 µM (inactive)
- GI50 [41]: > 100 µM (inactive)
- GI50 [42]: > 100 µM (inactive)
- GI50 [43]: > 100 µM (inactive)
- GI50 [44]: > 100 µM (inactive)
- GI50 [45]: > 100 µM (inactive)
- GI50 [46]: > 100 µM (inactive)
- GI50 [47]: > 100 µM (inactive)
- GI50 [48]: > 100 µM (inactive)
- GI50 [49]: > 100 µM (inactive)
- GI50 [50]: > 100 µM (inactive)
- GI50 [51]: > 100 µM (inactive)
- GI50 [52]: > 100 µM (inactive)
- GI50 [53]: > 100 µM (inactive)
- GI50 [54]: > 100 µM (inactive)
- GI50 [55]: > 100 µM (inactive)
- GI50 [56]: > 100 µM (inactive)
- GI50 [57]: > 100 µM (inactive)
- GI50 [58]: > 100 µM (inactive)

SMILES: CCOC(=O)c1cc(C)n(CN(CCO)Cn2nc(C(=O)OCC)cc2C)n1
- GI50 [1]: 21.1 µM (inactive)
- GI50 [2]: 28.6 µM (inactive)
- GI50 [3]: 19.9 µM (inactive)
- GI50 [4]: 80.2 µM (inactive)
- GI50 [5]: 35.3 µM (inactive)
- GI50 [6]: 31.6 µM (inactive)
- GI50 [7]: 34.2 µM (inactive)
- GI50 [8]: 27.5 µM (inactive)
- GI50 [9]: 19.9 µM (inactive)
- GI50 [10]: 27.5 µM (inactive)
- GI50 [11]: 22 µM (inactive)
- GI50 [12]: 27.1 µM (inactive)
- GI50 [13]: 21.5 µM (inactive)
- GI50 [14]: 28.3 µM (inactive)
- GI50 [15]: 18.3 µM (inactive)
- GI50 [16]: 31.8 µM (inactive)
- GI50 [17]: 27.9 µM (inactive)
- GI50 [18]: 18.5 µM (inactive)
- GI50 [19]: 26 µM (inactive)
- GI50 [20]: 20.5 µM (inactive)
- GI50 [21]: 17.8 µM (inactive)
- GI50 [22]: 22.7 µM (inactive)
- GI50 [23]: 33.4 µM (inactive)
- GI50 [24]: 21.5 µM
- GI50 [25]: 19.5 µM (inactive)
- GI50 [26]: 22.6 µM (inactive)
- GI50 [27]: 97.3 µM (inactive)
- GI50 [59]: 11.8 µM (inactive)
- GI50 [28]: > 100 µM (inactive)
- GI50 [29]: 28.2 µM (inactive)
- GI50 [30]: 52.4 µM (inactive)
- GI50 [31]: 36.2 µM (inactive)
- GI50 [32]: 39.7 µM (inactive)
- GI50 [33]: 17.7 µM (inactive)
- GI50 [34]: 25.5 µM (inactive)
- GI50 [35]: 29.4 µM (inactive)
- GI50 [36]: 25.9 µM (inactive)
- GI50 [37]: 37.2 µM (inactive)
- GI50 [38]: 24.8 µM (inactive)
- GI50 [39]: 97.7 µM (inactive)
- GI50 [40]: 29.2 µM (inactive)
- GI50 [41]: 18.8 µM (inactive)
- GI50 [42]: 40.7 µM (inactive)
- GI50 [44]: 34.9 µM (inactive)
- GI50 [45]: 66.5 µM (inactive)
- GI50 [46]: 24.5 µM (inactive)
- GI50 [47]: 29.2 µM (inactive)
- GI50 [48]: 22.8 µM (inactive)
- GI50 [49]: 18.7 µM (inactive)
- GI50 [50]: 26.9 µM (inactive)
- GI50 [51]: 34.2 µM (inactive)
- GI50 [52]: 23.6 µM (inactive)
- GI50 [53]: > 100 µM (inactive)
- GI50 [55]: 19.3 µM (inactive)
- GI50 [56]: 28.4 µM (inactive)
- GI50 [57]: 27.4 µM (inactive)
- GI50 [58]: > 100 µM (inactive)

SMILES: CN(CCC(=O)O)S(=O)(=O)c1ccccc1
- GI50 [1]: > 100 µM (inactive)
- GI50 [2]: > 100 µM (inactive)
- GI50 [3]: > 100 µM (inactive)
- GI50 [4]: > 100 µM (inactive)
- GI50 [5]: > 100 µM (inactive)
- GI50 [6]: > 100 µM (inactive)
- GI50 [7]: > 100 µM (inactive)
- GI50 [8]: > 100 µM (inactive)
- GI50 [9]: > 100 µM (inactive)
- GI50 [10]: > 100 µM (inactive)
- GI50 [11]: > 100 µM (inactive)
- GI50 [12]: > 100 µM (inactive)
- GI50 [13]: > 100 µM (inactive)
- GI50 [14]: > 100 µM (inactive)
- GI50 [15]: > 100 µM (inactive)
- GI50 [16]: > 100 µM (inactive)
- GI50 [17]: > 100 µM (inactive)
- GI50 [18]: > 100 µM (inactive)
- GI50 [19]: > 100 µM (inactive)
- GI50 [20]: > 100 µM (inactive)
- GI50 [21]: > 100 µM (inactive)
- GI50 [22]: > 100 µM (inactive)
- GI50 [23]: > 100 µM (inactive)
- GI50 [24]: > 100 µM
- GI50 [25]: > 100 µM (inactive)
- GI50 [26]: > 100 µM (inactive)
- GI50 [27]: > 100 µM (inactive)
- GI50 [28]: > 100 µM (inactive)
- GI50 [29]: > 100 µM (inactive)
- GI50 [30]: > 100 µM (inactive)
- GI50 [31]: > 100 µM (inactive)
- GI50 [32]: > 100 µM (inactive)
- GI50 [33]: > 100 µM (inactive)
- GI50 [34]: > 100 µM (inactive)
- GI50 [35]: > 100 µM (inactive)
- GI50 [36]: > 100 µM (inactive)
- GI50 [37]: > 100 µM (inactive)
- GI50 [38]: > 100 µM (inactive)
- GI50 [39]: > 100 µM (inactive)
- GI50 [40]: > 100 µM (inactive)
- GI50 [41]: > 100 µM (inactive)
- GI50 [42]: > 100 µM (inactive)
- GI50 [43]: 80.2 µM (inactive)
- GI50 [44]: > 100 µM (inactive)
- GI50 [45]: > 100 µM (inactive)
- GI50 [46]: > 100 µM (inactive)
- GI50 [47]: > 100 µM (inactive)
- GI50 [48]: > 100 µM (inactive)
- GI50 [49]: > 100 µM (inactive)
- GI50 [50]: > 100 µM (inactive)
- GI50 [51]: > 100 µM (inactive)
- GI50 [52]: > 100 µM (inactive)
- GI50 [53]: > 100 µM (inactive)
- GI50 [54]: > 100 µM (inactive)
- GI50 [55]: > 100 µM (inactive)
- GI50 [56]: > 100 µM (inactive)
- GI50 [57]: > 100 µM (inactive)
- GI50 [58]: > 100 µM (inactive)
